According to paper PMC7532663, “Pharmacological inhibition of mTORC1 increases CCKBR-specific tumor uptake of radiolabeled minigastrin analogue [^177Lu]Lu-PP-F11N” (Theranostics, 2020):

system: A431/CCKBR cells; test: CellTiter 96 AQueous (MTS) proliferation assay; assay type: cell-based, human; conditions: not given

SMILES	Proliferation [A570]
OC[C@H]1O[C@@H](n2cnc3cc(Cl)c(Cl)cc32)[C@H](O)[C@@H]1O [5,6-dichloro-1-β-D-ribofuranosylben zimidazole]	0.99
CC1=C(O)C(=O)[C@@H]2O[C@@H]2C1=O [Terreic acid]	1.06
CC[C@H](CO)Nc1nc(NCc2ccccc2)c2ncn(C(C)C)c2n1 [Roscovi tine]	0.91

same assay, conditions: 10 μM kinase inhibitor; MTS absorbance at 570 nm, reference 650 nm; mean of triplicate

SMILES	Proliferation [A570]
N#CC(=Cc1ccc2[nH]ccc2c1)C(N)=C(C#N)C#N [AG-3 70]	0.97
N#CC(C#N)=Cc1cc(O)c(O)c([N+](=O)[O-])c1 [TYRPHOSTIN AG 1288]	0.97
O=C1Nc2ccccc2/C1=C1/Nc2ccccc2C1=O [Indirubin]	1.09
Oc1ccc(-c2nc(-c3ccncc3)c(-c3ccc(F)cc3)[nH]2)cc1 [SB-202190]	1.02
CN([C@@H](Cc1ccc(OS(=O)(=O)c2cccc3cnccc23)cc1)C(=O)N1CCN(c2ccccc2)CC1)S(=O)(=O)c1cccc2cnccc12 [KN-62]	0.82
O=C1Nc2ccc(I)cc2/C1=C/c1cc(Br)c(O)c(Br)c1 [GW 5074]	0.93
O=c1cc(-c2ccc(O)cc2)oc2cc(O)cc(O)c12 [Apigenin]	0.90
O=C(O)c1cc(N(Cc2ccccc2O)Cc2cc(O)ccc2O)ccc1O [Lavendustin A]	1.15
N#CC(C#N)=Cc1ccc(O)c(O)c1 [TYRPHOSTIN 23]	1.07
Cc1cc2ncc(-c3ccccc3)nc2cc1C [TYRPHOSTIN AG 1295]	0.94
CCCCCCCCCCCCCCCC(=O)OC(CC(=O)[O-])C[N+](C)(C)C (racemic) [Palmitoyl-DL-carnitine]	0.91
N#C/C(=C\c1ccc(O)c(O)c1)C(=O)NCc1ccccc1 [AG-4 90]	1.03
COc1ccc(S(=O)(=O)N(CCO)c2ccccc2CN(C)C/C=C/c2ccc(Cl)cc2)cc1 [KN-93]	0.92
Cc1ccc(-c2nn(C(C)(C)C)c3ncnc(N)c23)cc1 [PP1]	0.80
CC(C)(C)c1cc(C=C(C#N)C#N)cc(C(C)(C)C)c1O [TYRPHOSTIN 9]	0.62
O=C1Cc2c([nH]c3ccc(Br)cc23)-c2ccccc2N1 [Kenpaullone]	0.99
O=c1cc(N2CCOCC2)oc2c(-c3ccccc3)cccc12 [LY 294002]	0.92
CNCCNS(=O)(=O)c1cccc2cnccc12 [H-8]	0.99
COc1cc2ncnc(Nc3cccc(Cl)c3)c2cc1OC [TYRPHOSTIN AG 1478]	0.72
CC1CNCCN1S(=O)(=O)c1cccc2cnccc12.Cl.Cl (stereo not drawn) [H-7·2HCl]	0.98
O=C1Nc2ccccc2/C1=C1/Nc2ccccc2/C1=N\O [Indirubin-3'-monooxime]	0.87
N#CC(=C(/N)Sc1ccccc1N)/C(C#N)=C(/N)Sc1ccccc1N [U-0126]	0.87
Cn1cnc2c(NCc3ccccc3)nc(NCCO)nc21 [Olomoucine]	0.98
Nc1ncnc2c1c(I)cn2[C@@H]1O[C@H](CO)[C@@H](O)[C@H]1O [5-Iodotubericidin]	1.15
O=C(O)c1cc(NCc2cc(O)ccc2O)ccc1O [2-Hydroxy-5-(2,5-dihydroxybenzylamino)benzoi c acid]	1.01
O=c1c(-c2ccc(O)cc2)coc2cc(O)ccc12 [Daidzein]	0.92
CC(C)c1cc(/C=C(\C#N)C(=O)NCCCc2ccccc2)cc(C(C)C)c1O [SU1498]	0.98
CC(C)(C)n1nc(-c2ccc(Cl)cc2)c2c(N)ncnc21 [PP2]	0.86
CO[C@@H]1[C@H](N(C)C(=O)c2ccccc2)C[C@H]2O[C@]1(C)n1c3ccccc3c3c4c(c5c6ccccc6n2c5c31)C(=O)NC4 [PKC-4 12]	0.78
CN[C@@H]1C[C@H]2O[C@@](C)([C@@H]1OC)n1c3ccccc3c3c4c(c5c6ccccc6n2c5c31)C(=O)NC4 [Staurosporine]	0.51
